Test results published in the supplement of paper PMC10307832.

Columns and labels:
Assay in all cases: relative viability (nuclei count vs DMSO), 5 days (fraction); higher = more cells survive
[1] = compound: CC[C@H](CO)Nc1nc(NCc2ccccc2)c2ncn(C(C)C)c2n1 [Seliciclib] + C[C@]1(O)C[C@@H](c2nc(-c3ccc4ccc(-c5ccccc5)nc4c3)c3c(N)nccn32)C1 [Linsitinib] (partner 1 µM)
In short: (§1)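 Cells from lung cancer lines were seeded into 1536-well plates and, one day later, dosed by pin tool. Treatments were either a single drug or a fixed dose of an anchor drug with five library-drug doses (not always all listed) in √10 steps. After 5 days, nuclei were stained in a one-step fixation (final 0.05% Triton X-100, 1% formaldehyde, 1 ug/ml Hoechst) and counted on 4× images, and relative viability is the treated-to-vehicle nuclei ratio, as the median of duplicate plates.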

[2] = compound: CC[C@H](CO)Nc1nc(NCc2ccccc2)c2ncn(C(C)C)c2n1 [Seliciclib] + CS(=O)(=O)CCNCc1ccc(-c2ccc3ncnc(Nc4ccc(OCc5cccc(F)c5)c(Cl)c4)c3c2)o1 [Lapatinib] (partner 2 µM)
In short: as §1

[3] = compound: CC[C@H](CO)Nc1nc(NCc2ccccc2)c2ncn(C(C)C)c2n1 [Seliciclib] + Cc1nc(NC(=O)N2CCC[C@H]2C(N)=O)sc1-c1ccnc(C(C)(C)C(F)(F)F)c1 [Alpelisib] (partner 2 µM)
In short: as §1

[4] = compound: CC[C@H](CO)Nc1nc(NCc2ccccc2)c2ncn(C(C)C)c2n1 [Seliciclib] + COc1cccc2cc(-c3nc([C@H]4CC[C@H](C(=O)O)CC4)n4ncnc(N)c34)[nH]c12 [OSI-027] (partner 0.5 µM)
In short: as §1

Cell Line	relative viability ([1]; first compound 0.08 µM)	relative viability ([1]; first compound 0.253 µM)	relative viability ([1]; first compound 0.8 µM)	relative viability ([1]; first compound 2.53 µM)	relative viability ([1]; first compound 8 µM)	relative viability ([2]; first compound 0.08 µM)	relative viability ([2]; first compound 0.253 µM)	relative viability ([2]; first compound 0.8 µM)	relative viability ([2]; first compound 2.53 µM)	relative viability ([2]; first compound 8 µM)	relative viability ([3]; first compound 0.08 µM)	relative viability ([3]; first compound 0.253 µM)	relative viability ([3]; first compound 0.8 µM)	relative viability ([3]; first compound 2.53 µM)	relative viability ([3]; first compound 8 µM)	relative viability ([4]; first compound 0.08 µM)	relative viability ([4]; first compound 0.253 µM)	relative viability ([4]; first compound 0.8 µM)	relative viability ([4]; first compound 2.53 µM)	relative viability ([4]; first compound 8 µM)
HCC-78	0.478	0.558	0.49	0.596	0.404	0.931	1.39	0.881	0.559	0.479	0.375	0.358	0.329	0.285	0.339	0.411	0.426	0.358	0.34	0.326
HCC-366	0.538	0.448	0.557	0.836	0.36	1.01	1.15	0.987	1.22	0.863	0.367	0.302	0.342	0.344	0.371	0.978	0.43	0.825	0.513	0.625
HCC-827	0.927	1	0.892	0.919	0.845	0.208	0.246	0.203	0.225	0.188	1.01	1.01	1	1.04	0.784	0.844	0.612	0.757	0.801	0.794
HOP-62	1.04	0.935	0.891	0.834	0.879	0.937	0.931	1.04	1.06	0.864	1.03	0.811	0.942	1.05	0.829	0.891	0.705	0.952	0.57	0.777
LC-2-ad	0.884	0.94	0.756	0.827	0.607	0.948	1.15	0.895	0.829	0.857	0.852	0.852	0.4	0.899	0.635	0.902	0.901	0.827	0.453	0.799
LCLC-97TM1	0.162	0.181	0.205		0.18	1.12	1.71	1.36		0.364	0.243	0.308	0.382		0.23	0.442	0.424	0.714	0.108	0.182
LK-2	0.74	0.462	0.523	0.676	0.274	0.946	0.91	0.871	0.747	0.452	1.05	0.968	0.955	1.17	0.822	0.225	0.203	0.191	0.175	0.194
LOU-NH91	0.878	0.889	0.881	1.01	0.693	0.743	0.682	0.729	0.6	0.681	0.687	0.689	0.661	0.653	0.515	0.741	0.693	0.674	0.592	0.644
